Laboratory results from patent US6465625B1, “Taxol derivatives” (Albany Molecular Research, Inc., priority 1995, dated 2002).

Assays:
[1] = system: MOLT-4 cells, a lymphoblastic leukemia cell line; assay: cytotoxicity against MOLT-4 cells (trypan blue exclusion, cell counts after 72 h); assay type: cell-based; conditions: 100 nM to 0.1 nM, 0.5% DMSO
Method: (§1) 18. To verify their potential as prodrugs, two taxol esters, taxol 2′-chloroacetate (2) and taxol 2′-acrylate (3), were tested for cytotoxicity against HL-60 cells, a promyelocytic leukemia cell line, and MOLT-4 cells, a lymphoblastic leukemia cell line.^20 Both derivatives had IC50 values about ten times higher than that of taxol for each cell line.
(§2) 20. Cells were seeded in 96-well plates at densities of 30,000 cells/well and grown in RPMI-1640 medium containing 10% bovine calf serum at 37° C. for 24 h. The medium was then replaced with fresh medium containing the taxol esters (excluding taxol, which had been removed by preparative TLC) dissolved in DMSO at final concentrations ranging from 100 nM to 0.1 nM. The final concentration of DMSO in the cell medium was 0.5%. After 72 h, samples were removed for cell counts. Total cell number and viability were determined by trypan blue exclusion and manual cell counting on a hemacytometer.

[2] = system: HL-60 cells, a promyelocytic leukemia cell line; assay: cytotoxicity against HL-60 cells (trypan blue exclusion, cell counts after 72 h); assay type: cell-based; conditions: 100 nM to 0.1 nM, 0.5% DMSO
Method: as §1, §2

solubility in water = conditions: for solubility greater than that of taxol: relative to taxol, rounded figures of b160; for increase of water solubility relative to taxol: relative to taxol (<4 μg/ml)

Compound | IC50 relative to that of taxol [1] | IC50 relative to that of taxol [2] | solubility greater than that of taxol (solubility in water) | increase of water solubility relative to taxol (solubility in water; water) [fold] | solubility (solubility in water; water) [µg/mL]
CC(=O)OC1C(=O)C2(C)C(O)CC3OCC3(OC(C)=O)C2C(OC(=O)c2ccccc2)C2(O)CC(OC(=O)C(OC(=O)CCl)C(NC(=O)c3ccccc3)c3ccccc3)C(C)=C1C2(C)C (stereo not drawn) [compound 2, taxol 2′-chloroacetate] | about ten | about ten | – | – | –
C=CC(=O)OC(C(=O)OC1CC2(O)C(OC(=O)c3ccccc3)C3C4(OC(C)=O)COC4CC(O)C3(C)C(=O)C(OC(C)=O)C(=C1C)C2(C)C)C(NC(=O)c1ccccc1)c1ccccc1 (stereo not drawn) [compound 3, Taxol 2′-acrylate] | about ten | about ten | – | – | –
CC(=O)O[C@H]1C(=O)[C@@]2(C)C([C@H](OC(=O)c3ccccc3)[C@]3(O)C[C@H](OC(=O)[C@H](OC(=O)CCCCC(=O)OCC4OC(O)C(O)C(O)C4O)[C@@H](NC(=O)c4ccccc4)c4ccccc4)C(C)=C1C3(C)C)[C@]1(OC(C)=O)CO[C@@H]1C[C@@H]2O (stereo partly drawn) [taxol 2′-(adipoyl)glucose, Taxol 2′-(adipoyl) glucose] | – | – | 60 times | 58 | –
CC(=O)O[C@H]1C(=O)[C@@]2(C)C([C@H](OC(=O)c3ccccc3)[C@]3(O)C[C@H](OC(=O)[C@H](OC(=O)CCCCC(=O)O)[C@@H](NC(=O)c4ccccc4)c4ccccc4)C(C)=C1C3(C)C)[C@]1(OC(C)=O)CO[C@@H]1C[C@@H]2O (stereo partly drawn) [taxol 2′-adipic acid, Taxol 2′-adipic acid] | – | – | 1,700 times | 1625 | –
CC(=O)O[C@H]1C(=O)[C@@]2(C)[C@H]([C@H](OC(=O)c3ccccc3)[C@]3(O)C[C@H](OC(=O)[C@H](O)[C@@H](NC(=O)c4ccccc4)c4ccccc4)C(C)=C1C3(C)C)[C@]1(OC(C)=O)CO[C@@H]1C[C@@H]2O [taxol] | – | – | – | – | < 4
